Results reported in patent publication US7705032B2, “Method and composition for treating burned skin” (Lil Brat Pharmaceuticals of Marlette, MI, priority 2003, dated 2010).

System: sunburned skin
Experiment: topical treatment of sunburned skin
Type: in vivo, human being
Details: compared with other anti-inflammatory drugs, such as Motrin® and Tolectin®
Excerpt: The present invention provides a method and composition for treating sunburned skin of a human being. The composition includes a mixture of indomethacin and a moisturizing lotion. […] It is believed that the skin, with the presence of the topical formulation, acts as a reservoir, absorbing large amounts of the indomethacin and slowly releasing the indomethacin into the skin and to other tissues. The skin may actually act as a depot or reservoir for the indomethacin. It is believed that the indomethacin is stabilized and solubilized by the moisturizing lotion wherein the moisturizing lotion enhances the absorption of the indomethacin through the skin and accordingly permits the drug to be employed topically for inflammation of the sunburned skin. […] This mixture level allows the Cetaphil® to act as a proper stabilizer and solubilizer for the indomethacin. A stronger or weaker indomethacin mixture may be created depending on the treatment. However, experimentation has shown that the above-noted mixture remains an effective mixture for the treatment of sunburned skin. In use, the disclosed amounts of indomethacin and Cetaphil® are mixed to create the appropriate composition. […] The moisturizing lotion provides moisture and a cooling sensation to the sunburned skin, and the indomethacin reduces the inflammation to the skin caused by the sunburn. […]

**Q.** COc1ccc2c(c1)c(CC(=O)O)c(C)n2C(=O)c1ccc(Cl)cc1 [indomethacin, 1-(p-chlorobenzoyl)-5-methoxy-2-methylindole-3-acetic acid] was tested. Which relieving sunburned skin did it give?
**A.** far better results
